# Results published in PMC7290078, “Agonist bias and agonist‐dependent antagonism at corticotrophin releasing factor receptors” (Pharmacology Research & Perspectives, 2020).
# Molecular target: T1, CRF2 receptor (hCRF2α) (Homo sapiens, UniProt Q13324)
# T1 construct: host or cells: Cos7 cells, transient transfection (PEI), pcDNA3.0/3.1 vector
# T1 sequence (Q13324 1-411): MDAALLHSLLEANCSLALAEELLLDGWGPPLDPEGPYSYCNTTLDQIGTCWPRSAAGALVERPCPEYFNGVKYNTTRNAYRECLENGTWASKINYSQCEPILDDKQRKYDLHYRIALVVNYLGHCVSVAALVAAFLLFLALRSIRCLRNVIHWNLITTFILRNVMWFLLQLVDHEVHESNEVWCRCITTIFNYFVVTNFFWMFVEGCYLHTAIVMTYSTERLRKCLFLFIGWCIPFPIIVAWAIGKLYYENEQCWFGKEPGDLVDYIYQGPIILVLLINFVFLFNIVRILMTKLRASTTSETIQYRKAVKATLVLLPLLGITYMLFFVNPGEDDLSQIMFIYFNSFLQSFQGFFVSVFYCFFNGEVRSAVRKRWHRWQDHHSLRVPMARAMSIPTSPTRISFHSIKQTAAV
# Assay: Antagonism of agonist-mediated cAMP accumulation in Cos7 cells expressing CRF2 receptors
# Format: cell-based
# Conditions: for antagonist potency (pKB): hCRF2α, global Schild analysis, mean ± SEM, n = 5
# Source text: Plasmids containing hCRF1α and hCRF2α (GenBank accession numbers AY457172 and AY449734) were obtained from the cDNA Resource Centre (Bloomsburg University) and are referred to as CRF1 and CRF2 in this manuscript. Hemagglutinin (HA) epitope‐tagged human Calcitonin (CT) receptor (CT(a) splice variant) and myc‐tagged human RAMP1 were used as described previously. ^27 HA‐tagged human calcitonin receptor‐like receptor (CLR), N‐terminal FLAG‐tagged human RAMP3 and N‐terminal myc‐tagged human RAMP3 were a gift from Professor David Poyner (Aston University) and Professor Patrick Sexton (Monash University), respectively. N‐terminal FLAG‐tagged human RAMP2 was used as described previously. ^28 All receptors and RAMPs were cloned in pcDNA3.0 or pcDNA3.1 plasmid vectors. All plasmid inserts were sequenced at the Centre for Genomics, Proteomics and Metabolomics (University of Auckland) and the sequences were verified prior to use.
# Cos7, HEK‐293S, and HEK‐293T cells were cultured as described previously. ^28 , ^29 Cos7 cells were originally supplied by the ATCC to Associate Professor Nigel Birch (University of Auckland). HEK‐293S cells were a gift from Professor David Poyner (Aston University) and HEK‐293T cells a gift from Professor John Taylor (University of Auckland). Briefly, all cell lines were cultured in Dulbecco's Modified Eagle Medium (DMEM) supplemented with 8% heat inactivated fetal bovine serum (FBS) and maintained in a humidified incubator at 37°C with 5% CO2. For transfection, cells were counted (Countess CounterTM; Life Technologies) and plated at a density of 20 000 cells per well in 96‐well plates. The cells were transiently transfected 48 hours prior to assaying using polyethylenimine (PEI), as described previously. ^28 , ^29 In all experiments a total of 0.25 μg DNA was transfected per well. In the majority of experiments 0.25 μg DNA of receptor‐containing plasmid or the pcDNA3.1 plasmid without an insert was used. For experiments involving RAMPs, 0.125 μg of receptor DNA and 0.125 μg of RAMP‐containing plasmid DNA were transfected to give a 1:1 ratio of receptor to RAMP. Where the RAMP or receptor were transfected alone, the ratio of DNA was made up with the pcDNA3.1 plasmid.
# cAMP accumulation in Cos7 cells transfected with hCRF1α or hCRF2α receptors was measured using the LANCE cAMP detection assay kit (PerkinElmer Life and Analytical Sciences) as described previously. ^30 Briefly, culture media was removed and replaced with DMEM containing 0.1% bovine albumin serum (BSA) and 1 mmol/L 3‐isobutyl‐1‐methylxanthine (IBMX) for 30 minutes at 37°C. Cells were incubated for an additional 15 minutes at 37°C with media or agonist concentrations of 1 pmol/L to 1 µmol/L for agonist only assays or 10 pmol/L to 10 µmol/L concentrations for antagonist experiments. Antagonists were added simultaneously or immediately prior to the addition of agonists. To stop cell stimulation and extract cAMP, the contents of the wells were replaced with 50 µL absolute ethanol. Samples were left at −20°C for a minimum of 10 minutes. The ethanol was evaporated and replaced with 50 µL of cAMP detection buffer. Samples were shaken for 15 minutes before 5 µL cell lysate was transferred to a white 384‐well optiplate and processed for cAMP quantification as described previously. ^31 Samples were read using an Envision plate reader (PerkinElmer). cAMP concentrations were determined from a standard curve generated in duplicate.
# In all experiments the position of peptides and antagonists (pharmacology) or transfected receptors (ELISAs) on assay plates was randomized during each independent experiment, which are independent biological replicates. In all cases, duplicate, triplicate, or quadruplicate technical replicates were conducted for each independent experiment.
smiles,measurement,setting,value
"CCC(CC)Nc1cc(C)nc(Oc2c(C)cc(C)cc2C)c1C [CP‐376,395]",effect on CRF‐mediated cAMP accumulation,"100 µM, CRF2 receptor",no effect
same,effect on UCN1‐mediated cAMP accumulation,"100 µM, CRF2 receptor",no effect
same,antagonist potency (pKB),"agonist CRF, cAMP",<4
same,antagonist potency (pKB),"agonist UCN1, cAMP",<4
